SMILES: CCCn1cncc1CSc1ccc(NC(=O)C(F)(F)F)cc1
- melting point: 82 to 84 °C
